Data: US9271946B2, “Use of a RAR antagonist or inverse agonist for the treatment of chemotherapy and/or radiation therapy side effects” (IO Therapeutics, Inc., priority 2006, dated 2016)

Columns and labels:
[1] = tested on: CPM-induced neutropenic male BDF1 mice; assay: mono-therapy and combination therapy on neutrophil recovery in CPM-induced neutropenic mice (Example 4); type: in vivo, mouse
Experimental: VTP 194310 DMSO stock solution was made by weighing out VTP 194310 and dissolved in DMSO (25 mg/1.33 ml DMSO). This stock solution was then mixed with Vehicle (39.2 ml Corn Oil+0.8 ml DMSO).
The 3.0 mg/kg VTP194310 solution was made by mixing 39.2 ml Corn Oil+0.8 ml VTP 194310 DMSO Stock.
The 1.0 mg/kg VTP194310 solution was made by diluting the VTP194310 DMSO Stock 1:3 with DMSO (e.g. 1 ml DMSO+0.5 ml 4310 Stock), and then combining 39.2 ml Corn Oil+0.8 ml of the diluted VTP194310 Stock.
The 1 and 10 μg/kg PEG-G-CSF solutions were made by diluting 6 mg/ml stock with PBS.
Male BDF1 mice (C57Bl×DBA2), 7-8 weeks old, DOB: 1 Jun. 2006) were used in this experiment.
35 μl of blood (via the submandibular vein) were collected according to the scheduled time points or until the full recovery of blood cells and platelets. The blood samples were analyzed after 1:5 dilution with PBS saline containing 2% BSA (Fraction V) and 0.2 mM EDTA on the Hematology Analyzer Cell-DYN 3700 (Abbott Diagnostics).
Each group of mice were treated with vehicle, VTP 194310 at 3 mg/kg, PEG-G-CSF at 1 or 10 μg/kg, and CPM at 150 mg/kg. The mean numbers of total white blood cells (WBC), neutrophils, lymphocytes, red blood cells (RBC) and platelets and standard error (SE) for data obtained for each treated group are shown in FIG. 4. […] Combination treatment with VTP 194310 and PEG-G-CSF further increased recovery.

S. aureus MSSA 476 = assay: activity against S. aureus, growth on agar and in liquid culture; type: cell-based
Experimental: (§1) The compound was analyzed at an appropriate concentration in several assays for activity against S. aureus EMRSA-16 252 and S. aureus MSSA 476.

S. aureus EMRSA-16 252 = assay: as above; type: cell-based
Experimental: as §1

RARα = target: T1, RARα (Homo sapiens, UniProt P10276); assay: binding to RARα
T1 sequence (P10276 1-462): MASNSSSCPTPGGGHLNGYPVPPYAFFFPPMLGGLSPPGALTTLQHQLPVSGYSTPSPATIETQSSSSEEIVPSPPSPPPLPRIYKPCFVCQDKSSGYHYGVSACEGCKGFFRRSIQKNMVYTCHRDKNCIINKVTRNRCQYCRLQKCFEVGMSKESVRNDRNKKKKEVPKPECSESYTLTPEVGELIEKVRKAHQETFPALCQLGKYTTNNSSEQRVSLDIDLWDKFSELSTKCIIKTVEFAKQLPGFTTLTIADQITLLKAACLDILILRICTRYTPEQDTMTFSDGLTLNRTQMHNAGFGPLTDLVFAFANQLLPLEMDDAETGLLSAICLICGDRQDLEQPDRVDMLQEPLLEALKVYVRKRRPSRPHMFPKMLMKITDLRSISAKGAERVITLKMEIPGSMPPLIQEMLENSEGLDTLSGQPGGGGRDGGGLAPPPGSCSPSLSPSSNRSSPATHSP

RAR = assay: transactivation assays; type: cell-based
Excerpt: An assay that can be used to determine the agonist activity in the RARα, RARβ and RARγ receptor subtypes is described in Feigner, P. L., and Holm, M., FOCUS, 11:2, 21+ (1989) and U.S. Pat. Nos. 5,455,265 and 7,166,726, all of which are incorporated herein by reference in their entirety.

[2] = tested on: CPM-induced leukopenic male BDF1 mice; assay: cyclophosphamide-induced mouse model of leukopenia, blood cell recovery (Example 1); type: in vivo; settings: for lymphocyte counts: mean±SEM
Excerpt: Mice purchased from Charles River Laboratories (Wilmington, Mass.) were housed individually in micro-isolater cages in a 12-hour light/dark cycle. They were housed under pathogen-free conditions, and received a normal standard diet and water ad libitum. They were acclimated for one week at the Association for Assessment and Accreditation of Laboratory Animal Care (AAALAC) accredited animal facility (Allergan Inc., Irvine, Calif.) prior to experiments. Study designs were approved by the Institutional Animal Care and Use Committee. Body weights were monitored throughout each study. Weight of the mice was in the range of 22-27 g at the day of treatment initiation. The mice were healthy, not previously used in other experimental procedures.
Leukopenia was induced in male BDF1 mice (C57Bl×DBA2, 7.5-12 weeks) by an intra-peritoneal (i.p.) injection of 200 mg/kg Cyclophosphamide (CPM, Sigma-Aldrich, Saint Louis, Mo.) in 0.2 ml saline. The effect of VTP 194310 on leukocyte recovery was evaluated by oral gavage of animals with 1 mg/kg of VTP 194310 as indicated in the results section. VTP 194310 (dissolved in DMSO) was diluted through peanut oil as the vehicle (dosed at 5 ml/kg). Control mice were given DMSO and vehicle alone. As a positive control, granulocytopoiesis was stimulated in CPM-treated mice by a single sub-cutaneous injection of 10 μg/kg pegylated recombinant methionyl human granulocyte colony-stimulating factor (PEG-r-metHuG-CSF) (Neulasta, Pegfilgrastim; Amgen, Thousand Oaks, Calif.) on day 2. Three separate experiments were performed.
Peripheral blood (60 μl) was collected under anaesthesia from the retroorbital sinus of the mice with heparinized capillary tubes and transferred to EDTA-coated microtainer tubes (Becton Dickinson, Franklin Lakes, N.J.). White cell, neutrophil, and lymphocyte counts were obtained for at least three mice per group by diluting the blood 1:4 with PBS containing 5% bovine serum albumin (Fraction V; Sigma, Saint Louis, Mo.), and by using an Advia 120 Hematology System (Bayer HealthCare Diagnostics Division, Tarrytown, N.Y.).

[3] = 2 μM incorporated into the agar
[4] = 50 μl of 2 μM in agar-well-diffusion assay
[5] = 1 mg/kg oral at days −4 to −1 and at days 0 to 3
[6] = day 8, 1 mg/kg oral at days −4 to −1 and at days 0 to 3, CPM day 0

CCc1ccc(C2=CC(C)(C)Sc3ccc(C#Cc4ccc(C(=O)O)cc4)cc32)cc1 [VTP 194310, 4-[[4-(4-ethylphenyl)-2,2-dimethyl-(2H)-thiochromen-6-yl]-ethynyl]-benzoic acid]
effectiveness in enhancing neutrophil recovery compared to PEG-G-CSF at 10 μg/kg ([1]; CPM-induced mouse model): similarly effective | neutrophil recovery relative to control ([1]; monotherapy, CPM 150 mg/kg Day 0, VTP 194310 1 or 3 mg/kg/day oral Days −1 to 1, PEG-G-CSF 1 or 10 μg/kg s.c. Day 2): enhanced neutrophil recovery | growth rate in liquid culture (S. aureus MSSA 476; 2 μM): neither strain demonstrated any alteration in growth rate | growth of bacteria on agar (S. aureus MSSA 476; [3]): not inhibited | growth of bacteria on agar (S. aureus MSSA 476; [4]): not inhibited | growth rate in liquid culture (S. aureus EMRSA-16 252; 2 μM): neither strain demonstrated any alteration in growth rate | growth of bacteria on agar (S. aureus EMRSA-16 252; [3]): not inhibited | growth of bacteria on agar (S. aureus EMRSA-16 252; [4]): not inhibited | Ki (RARα): 3 nM | activity in transactivation assays (RAR; agonist activity): no activity | gene transcriptional activity induced by ATRA and other RAR agonists (RAR; antagonism): blocks the gene transcriptional activity | numbers of leukocytes and neutrophils generated ([2]; 1 mg/kg oral at days 4 to 7): improved the numbers of leukocytes and neutrophils generated, but to an extent that was considerably less | earliest day with significant differences in recovery [2, 5]: 5 day post-CPM | rise of leukocyte and neutrophil counts compared to control leukopenic mice [2, 5]: rose quicker | leukocyte recovery ([2]; CPM 200 mg/kg i.p., 1 mg/kg oral gavage): improved leukocyte recovery | leukocyte counts in blood versus mice treated with CPM alone [2, 6]: ~3 fold | neutrophil counts in blood versus mice treated with CPM alone [2, 6]: ~3 fold | lymphocyte counts ([2]; day 8, dosed days 0 to 3): 4.49±0.52 ×10^3/μl | lymphocyte counts ([2]; day 8, dosed days −4 to −1): 4.53±0.39 ×10^3/μl | number of lymphocytes in blood compared to control leukopenic mice and Peg-r-metHuG-CSF mice ([2]; dosed days −4 to −1 and days 0 to 3): increased number of lymphocytes
